Reference: patent US20230145764A1, “BLOOD-BASED TUMOR MUTATION BURDEN PREDICTS OVERALL SURVIVAL IN NSCLC” (MEDIMMUNE, LLC, priority 2018, published 2023)

What was measured:
metastatic NSCLC [1] = experiment: MYSTIC phase 3 study, efficacy (OS, PFS, tumor response) in ITT population and PD-L1 expression subgroups; assay type: in vivo, human; details: for ORR, %: BICR per RECIST v1.1
Source text: Adult patients with Stage IV NSCLC were eligible provided they had not previously received systemic therapy for advanced/metastatic NSCLC, had Eastern Cooperative Oncology Group performance status 0-1, measurable disease according to Response Evaluation Criteria in Solid Tumors version 1.1 (RECIST v1.1) (Chaft et al., Cancer Res. 78(13 Suppl) (abstr. CT113) (2018)), and known tumor PD-L1 expression status prior to randomization. Patients with sensitizing EGFR mutations or ALK rearrangements, and those with symptomatic, unstable brain metastases were excluded.
(§1) Patients continued treatment until objective disease progression (according to RECIST v1.1), development of an adverse event (AE) that necessitated treatment discontinuation, or withdrawal of consent.
Investigation of the relationship between biomarkers, including TMB, and clinical outcomes were also determined.
PD-L1 expression was evaluated using multiple cut-offs at a central laboratory using the VENTANA PD-L1 (SP263) immunohistochemistry (IHC) assay (Ventana Medical Systems, Tucson, Ariz., USA) (Rebelatto et al., Diagn. Pathol. 11(1): 95 (2016)). Tumor samples obtained within 3 months prior to screening were permitted.
(§2) Tumor response was assessed by BICR using RECIST v1.1, with imaging performed every 6 weeks for the first 48 weeks, then every 8 weeks, until confirmed disease progression. Patients were followed for survival. AEs were graded according to National Cancer Institute Common Terminology Criteria for Adverse Events version 4.03.
(§3) Efficacy was analyzed on an intention-to-treat (ITT) basis, including all randomized patients or subsets of this population based on PD-L1 expression or TMB levels. Safety analyses included all patients who received at least one dose of study treatment (as-treated population).
To control the type I error at 5% (two-sided), a hierarchical multiple testing procedure with gatekeeping strategy was used across endpoints, analysis populations, and treatment regimens. The primary PFS analysis was performed using a stratified log-rank test adjusting for histology, with hazard ratio (HR) and 99.5% confidence interval (CI) estimated using a Cox proportional hazards model. […] Survival curves were generated using the Kaplan-Meier method.
(§4) Odds ratios and 95% CI for comparing ORR between treatment groups were calculated using a logistic regression model, adjusted for the same factors as PFS and OS. Prespecified TMB analysis was performed using an unstratified log-rank test, with HRs and 95% Cis estimated using a Cox proportional hazards model.

metastatic NSCLC [2] = experiment: MYSTIC phase 3 study, efficacy by blood TMB (GuardantOMNI) or tissue TMB (FoundationOne) subgroup; assay type: in vivo, human
Protocol: as §1
Blood TMB was evaluated using the GuardantOMNI next-generation sequencing platform (Guardant Health, Redwood City, Calif., USA) comprised of 500 genes (FIG. 1).
The OMNI TMB algorithm incorporates somatic single nucleotide variants (SNVs), short insertions/deletions (indels), copy number amplifications and fusions, and is optimized to calculate TMB on blood samples with low cell-free circulating tumor DNA content (Merck Sharp & Dohme. Keytruda® (pembrolizumab) Summary of Product Characteristics. Updated March 2019. Available at: https://www.medicines.org.uk/emc/product/6947/smpc (last accessed May 1, 2019); Reck et al., N. Engl. J. Med. 375(19): 1823-33 (2016)). Both synonymous and nonsynonymous SNVs and indels were included, with removal of those with low shedding values, low diversity, and associations with clonal hematopoiesis, germline and oncogenic driver or drug resistance mechanisms. Tissue TMB was evaluated using the FoundationOne tissue next-generation sequencing platform (Foundation Medicine, Cambridge, Mass., USA). The algorithm has been described previously (Merck Sharp & Dohme. Keytruda® (pembrolizumab) prescribing information. Updated April 2019. Available at: https://www.merck.com/product/usa/pi_circulars/k/keytruda/keytruda_pi.pdf (last accessed May 1, 2019)).
as §3, §4

[3] = MYSTIC phase 3 study, safety (adverse events, as-treated population); details: in vivo
Protocol: as §1, §2, §3

mNSCLC = experiment: MYSTIC ctDNA mutation analysis (STK11, KEAP1, ARID1A), overall survival by mutation status; assay type: in vivo, human
Protocol: This example investigated associations between selected mutations and survival outcomes. Circulating tumour DNA from baseline plasma specimens was profiled using the GuardantOMNI platform. Samples were available from 1003 patients (89.7% of ITT population). 943 samples were mutation-evaluable. Survival outcomes were analysed in patients with or without non-synonymous somatic mutations in STK11, KEAP1, or ARID1A, or KRAS.

PD-L1 = PD-L1 (Homo sapiens, UniProt Q9NZQ7); details: in vitro; cited from earlier work
xenograft model = details: via a T-cell dependent mechanism; cited from earlier work
human CTLA-4 = biological target: T1, human CTLA-4 (Homo sapiens, UniProt P16410); details: specific for human CTLA-4; cited from earlier work
T1 sequence (P16410 36-223): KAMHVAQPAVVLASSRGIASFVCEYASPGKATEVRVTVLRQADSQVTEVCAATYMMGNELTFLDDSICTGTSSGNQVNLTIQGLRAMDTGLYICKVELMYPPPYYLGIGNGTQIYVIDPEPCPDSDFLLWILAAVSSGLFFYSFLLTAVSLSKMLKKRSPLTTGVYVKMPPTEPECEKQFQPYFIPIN

Fc receptors = details: cited from earlier work
[4] = test system: natural killer (NK) ADCC activity; details: cited from earlier work

Chain of PD-L1 (Q9NZQ7 19-290): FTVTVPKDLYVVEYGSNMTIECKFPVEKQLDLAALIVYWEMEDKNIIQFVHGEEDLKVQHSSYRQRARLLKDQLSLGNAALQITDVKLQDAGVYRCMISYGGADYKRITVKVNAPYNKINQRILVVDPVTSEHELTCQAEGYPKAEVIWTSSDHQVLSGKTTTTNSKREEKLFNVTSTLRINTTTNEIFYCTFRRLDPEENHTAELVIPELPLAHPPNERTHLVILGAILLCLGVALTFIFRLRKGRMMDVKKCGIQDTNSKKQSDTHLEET

durvalumab
Hazard ratio (95% CI) for death compared with chemotherapy (metastatic NSCLC [1]; ITT population): 0.96
Median overall survival, months (95% CI) (metastatic NSCLC [1]; ITT population): 12.3 months
Hazard ratio (95% CI) for death compared with chemotherapy (metastatic NSCLC [1]; PD-L1 TC <1%): 1.18
Median overall survival, months (95% CI) (metastatic NSCLC [1]; PD-L1 TC <1%): 10.1 months
Hazard ratio (95% CI) for death compared with chemotherapy (metastatic NSCLC [1]; PD-L1 TC ≥1%): 0.88
Median overall survival, months (95% CI) (metastatic NSCLC [1]; PD-L1 TC ≥1%): 14.6 months
24-month OS rate (metastatic NSCLC [1]; PD-L1 TC ≥25%): 38.3%
Best objective response, Complete response, % (metastatic NSCLC [1]; PD-L1 TC ≥25%): (0.6) %
Best objective response, Not evaluable, % (metastatic NSCLC [1]; PD-L1 TC ≥25%): (1.2) %
Best objective response, Partial response, % (metastatic NSCLC [1]; PD-L1 TC ≥25%): (35.0) %
Best objective response, Progressive disease, % (metastatic NSCLC [1]; PD-L1 TC ≥25%): (32.5) %
Best objective response, Stable disease ≥ 6 weeks, % (metastatic NSCLC [1]; PD-L1 TC ≥25%): (30.7) %
HR for death vs. chemotherapy (metastatic NSCLC [1]; PD-L1 TC ≥25%): 0.76
Remaining in response (%) at 6 months (metastatic NSCLC [1]; PD-L1 TC ≥25%): 66.9%
Remaining in response (%) at 12 months (metastatic NSCLC [1]; PD-L1 TC ≥25%): 61.3%
difference in PFS versus chemotherapy group (metastatic NSCLC [1]; PD-L1 TC ≥25%): no statistically significant difference
median OS (metastatic NSCLC [1]; PD-L1 TC ≥25% (primary analysis population)): 16.3 months
ORR, % (metastatic NSCLC [1]; PD-L1 TC ≥25%): 35.6%
ORR, % (metastatic NSCLC [1]; PD-L1 TC ≥25%, listed as Durvalumab Monotherapy): (35.6) %
Median DOR, months (95% CI) (metastatic NSCLC [1]; PD-L1 TC ≥25%, Kaplan-Meier, NR = not reached): NR (9.7-NR)
Hazard ratio (95% CI) for death compared with chemotherapy (metastatic NSCLC [1]; PD-L1 TC ≥25-49%): 0.78
Median overall survival, months (95% CI) (metastatic NSCLC [1]; PD-L1 TC ≥25-49%): 11.1 months
Hazard ratio (95% CI) for death compared with chemotherapy (metastatic NSCLC [1]; PD-L1 TC ≥50%): 0.76
Median overall survival, months (95% CI) (metastatic NSCLC [1]; PD-L1 TC ≥50%): 18.3 months
Estimated odds ratio vs. chemotherapy (95% CI) (metastatic NSCLC [1]; in vivo): 0.91
Number of events/patients (metastatic NSCLC [1]; overall survival, ITT population): 278/374
Number of patients (metastatic NSCLC [1]; overall survival, PD-L1 TC <1%): 84/95
Number of patients (metastatic NSCLC [1]; overall survival, PD-L1 TC ≥1%): 194/279
Number of patients (metastatic NSCLC [1]; overall survival, PD-L1 TC ≥25-49%): 33/45
Number of patients (metastatic NSCLC [1]; overall survival, PD-L1 TC ≥50%): 75/118
ORR, % (metastatic NSCLC [2]; Blood TMB <20 mut/Mb): (20.6) %
Remaining in response (%) at 6 months (metastatic NSCLC [2]; Blood TMB <20 mut/Mb): 64.0%
Remaining in response (%) at 12 months (metastatic NSCLC [2]; Blood TMB <20 mut/Mb): 59.1%
ORR, % (metastatic NSCLC [2]; Blood TMB ≥20 mut/Mb): (29.9) %
Remaining in response (%) at 6 months (metastatic NSCLC [2]; Blood TMB ≥20 mut/Mb): 86.5%
Remaining in response (%) at 12 months (metastatic NSCLC [2]; Blood TMB ≥20 mut/Mb): 80.3%
HR for death versus chemotherapy (metastatic NSCLC [2]; Tissue TMB ≥10 mut/Mb): 0.70
median OS (metastatic NSCLC [2]; Tissue TMB ≥10 mut/Mb): 18.6 months
median OS (metastatic NSCLC [2]; bTMB ≥20 mut/Mb): 12.6 months
unadjusted HR for death vs. chemotherapy (metastatic NSCLC [2]; bTMB ≥20 mut/Mb): 0.72
All-grade treatment-related AEs (TRAEs), % of patients [3]: 54.2%
Immune-mediated AEs of grade 3 or 4, % of patients [3]: 4.1%
Immune-mediated AEs, % of patients [3]: 13.6%
Rates of grade ≥3 TRAEs [3]: 14.9%
TRAEs leading to discontinuation [3]: 5.4%
Treatment-related deaths, % [3]: 0.5%
Treatment-related deaths, patients [3]: 2 patients
median OS (mOS) (mNSCLC; patients with ARID1Am): 8.6 months
median OS (mOS) (mNSCLC; patients with ARID1Awt): 13.7 months
median OS (mOS) (mNSCLC; patients with KEAP1m): 7.6 months
median OS (mOS) (mNSCLC; patients with KEAP1wt): 14.6 months
median OS (mOS) (mNSCLC; patients with STK11m): 10.3 months
median OS (mOS) (mNSCLC; patients with STK11wt): 13.3 months
PD-L1-mediated suppression of human T-cell activation (PD-L1): relieve PD-L1-mediated suppression
tumor growth in a xenograft model (xenograft model): inhibits tumor growth

tremelimumab
cross-reactivity to related human proteins (human CTLA-4): no cross-reactivity
specific binding to Fc receptors (Fc receptors): minimal specific binding
induction of natural killer (NK) ADCC activity [4]: does not induce
